Read-outs that look alike come from different tables or passages of the source.
Legend:
COLO 205 = assay: SRB cell proliferation assay, COLO 205; assay type: cell-based; settings: Homo sapiens, 18-Cell Line Panel, colon
Experimental: (§1) Cells were exposed to the test compounds at various concentrations appropriate to determine an IC50 for 72 hours. Cell proliferation was measured using the SRB assay according to Shekan et al (J Natl Cancer Inst (1990) 82, 1107-112) in order to estimate the IC50 values shown in Table 3. Briefly, cells were plated in 96 well dishes 24 hours prior to compound addition at the densities specified in Table 5.1. The assay was terminated with the addition of cold TCA to a final concentration of 10% after growth medium has been removed and the plates were incubated over night at 4°C. The plates were then washed 5 times with water and 100µl of a Sulforhodamine B solution (4%) was added to each well. The plates were then incubated for 10 minutes at room temperature before removal of unbound dye by washing with 1% acetic acid. The bound dye was solubilised with 10 mM Trizma base and the absorbance read at OD520.
(§2) Table 8.1: 18-Cell Line Panel

[1] = tested on: Abl, Akt1, Aur A, c-Kit, c-Raf, Cdk1/CycB, Chk1, FGFR3, Flt3, Fyn, IGF1-R, INSR, Lyn, MAPK-ERK1, p38a, PAK4, PKCalpha, Ret, ROCK2, RSK 1, c-Src, TIE2, and …; assay: Selectivity panel (Proteros), 23 other kinases; assay type: biochemical; settings: tested at 1 mM in triplicates; each of the 23 other kinases
Experimental: Selected compound of the present invention were tested in a standard selectivity panel including Plk1 and 23 other kinases (Proteros biostructures GmbH, Martinsried/Munich, Germany), under conditions of non-disclosure, non-dissemination and non-use.
In brief, compounds 1, 13, 14, and 25 (see Table 1) were tested at 1 mM in triplicates against Plk1 as well as against Abl, Akt1, Aur A, c-Kit, c-Raf, Cdk1/CycB, Chk1, FGFR3, Flt3, Fyn, IGF1-R, INSR, Lyn, MAPK-ERK1, p38a, PAK4, PKCalpha, Ret, ROCK2, RSK 1, c-Src, TIE2, and VEGF-R2.

HeLa = assay: SRB cell proliferation assay, HeLa; assay type: cell-based; settings: Homo sapiens, 18-Cell Line Panel, cervix
Experimental: as §1, §2

PC-3 = assay: SRB cell proliferation assay, PC-3; assay type: cell-based; settings: Homo sapiens, 18-Cell Line Panel, prostate
Experimental: as §1, §2

SK-MEL-28 = assay: SRB cell proliferation assay, SK-MEL-28; assay type: cell-based; settings: Homo sapiens, 18-Cell Line Panel, melanoma
Experimental: as §1, §2

HCT 116 = assay: SRB cell proliferation assay, HCT 116; assay type: cell-based; settings: Homo sapiens
Outline: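 Cells plated 24 h before compound, then exposed 72 h over a concentration range. TCA-fixed, sulforhodamine B-stained, bound dye read at OD520; IC50 derived from % inhibition of proliferation versus DMSO-treated cells.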

Plk1 = Plk1 (Homo sapiens, UniProt P53350); assay: Select Screen Kinase Assay (Invitrogen Kinase Profiling Service); assay type: biochemical; settings: tested at Invitrogen; read-out: IC50 values against Plk1 activity
Experimental: Selected compound of the present invention were tested in the Select Screen™ Kinase Profiling Service (Invitrogen Corporation, Madison, WI 53719, USA) against Plk1, under conditions of non-disclosure, non-dissemination and non-use.
In brief, compounds 1 and 13 (see Table 1) were tested at Invitrogen, and IC50 values against Plk1 activity of about 20 nM were obtained in each case.

A-375 = assay: SRB cell proliferation assay, A-375; assay type: cell-based; settings: Homo sapiens, 18-Cell Line Panel, melanoma
Experimental: as §1, §2

[2] = HCT-116, 18-Cell Line Panel, colon, read-out: IC50 HCT116
[3] = HCT-116, 72 h, 72 hours, SRB assay, read-out: CELLULAR IC50 HCT 116

Sequence of Plk1 (P53350 whole entry, species assumed): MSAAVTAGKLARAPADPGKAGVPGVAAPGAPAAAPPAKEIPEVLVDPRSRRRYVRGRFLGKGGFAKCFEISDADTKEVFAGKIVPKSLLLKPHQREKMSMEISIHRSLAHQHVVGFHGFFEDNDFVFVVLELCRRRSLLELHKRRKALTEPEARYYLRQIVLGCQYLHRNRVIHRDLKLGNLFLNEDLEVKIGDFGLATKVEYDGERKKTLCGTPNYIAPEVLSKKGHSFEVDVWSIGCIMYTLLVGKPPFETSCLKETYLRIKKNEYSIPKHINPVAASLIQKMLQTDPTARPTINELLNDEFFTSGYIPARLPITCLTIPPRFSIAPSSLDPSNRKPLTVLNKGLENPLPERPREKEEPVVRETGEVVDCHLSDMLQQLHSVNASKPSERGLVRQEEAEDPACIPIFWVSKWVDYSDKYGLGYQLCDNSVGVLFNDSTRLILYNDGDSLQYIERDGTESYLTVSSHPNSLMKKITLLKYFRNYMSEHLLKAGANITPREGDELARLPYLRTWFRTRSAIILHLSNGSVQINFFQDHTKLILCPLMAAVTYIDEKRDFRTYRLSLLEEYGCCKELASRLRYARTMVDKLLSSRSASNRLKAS

| IC50 (COLO 205) [nM] | IC50 (HeLa) [nM] | IC50 (PC-3) [nM] | IC50 (SK-MEL-28) [nM] | IC50 (HCT 116; [2]) [nM] | IC50 (HCT 116; [3]) [nM] | IC50 (Plk1) [nM] | IC50 (A-375) [nM] | SMILES | all other kinases were inhibited [1] |
| --- | --- | --- | --- | --- | --- | --- | --- | --- | --- |
| < 1000 | < 1000 | < 1000 | > 1000 | < 1000 | < 1000 | ~20 | < 1000 | CCC1C(=O)N(C)c2cnc(Nc3ccc(C(=O)NC4CCN(C)CC4)cc3OC)nc2N1N(C)C (racemic) [Compound 1, 4-(8-Dimethylamino-7-ethyl-5-methyl-6-oxo-5,6,7,8-tetrahydro-pteridin-2-ylamino)-3-methoxy-N-(1-methyl-piperidin-4-yl)-benzamide] | less than 10% |
| < 1000 | < 1000 | < 1000 | > 1000 | < 1000 | < 1000 | ~20 | < 1000 | CCC1C(=O)N(C)c2cnc(Nc3ccc(C(=O)N[C@H]4CC[C@H](N5CCN(CC6CC6)CC5)CC4)cc3OC)nc2N1N(C)C (relative stereo) [Compound 13, N-[trans-4-(4-Cyclopropylmethyl-piperazin-1-yl)-cyclohexyl]-4-(8-dimethylamino-7-ethyl-5-methyl-6-oxo-5,6,7,8-tetrahydro-pteridin-2-ylamino)-3-methoxy-benzamide] | less than 10% |

Reference: patent EP2112152A1, “Dihydropteridinones as Plk Inhibitors” (GPC Biotech AG, priority 2008, dated 2009)
